From US20250332141A1, “A PHARMACEUTICAL COMPOSITION COMPRISING AN INHIBITOR OF GLUTAMINE SYNTHETASE ENZYME TO COMBAT ARTEMISININ RESISTANCE IN MALARIA” (Institute of Life Sciences, priority 2022, published 2025)
Where two headings read alike, the source gives them in different places.

Assays:
[1] = tested on: ART-resistant PfCam3.I^R539T strain; experiment: Ring-stage survival assay (RSA) with ART-resistant strain; assay type: cell-based, Plasmodium falciparum
Experimental: PfCam3.I^R539T strain was maintained under standard conditions. When the parasitemia reached around 2% with predominant ring stages, the cultures were subjected to two rounds of tight synchronization within a span of 3 h in the previous cycle, followed by one additional synchronization in the subsequent cycle when they are in early rings. […] The medium change was carried out at 48 and 72 h, and after 96 h, the culture parasitemia was examined by Giemsa-stained smears and flow cytometry. For growth assessment by ^3H-hypoxanthine uptake, the label was added at 72 h and the cells were harvested at 96 h. The experiments were carried out independently in RPMI^-gln and RPMI^Pgln medium.

[2] = tested on: eIF2α phosphorylation in Pf3D7 rings; conditions: 250 μM for 6 h, RPMI^-gln medium
Experimental: Pf3D7 cultures were subjected to two rounds of tight synchronization within a span of 3 h in the previous cycle, followed by one additional synchronization in the subsequent cycle immediately after RBC invasion.

[3] = tested on: Pf protein synthesis; experiment: In vitro metabolic protein labelling with 35S-Methionine and Cysteine; assay type: cell-based; conditions: Plasmodium falciparum, 12 h treatment; for inhibition at 50 µM / inhibition at 250 µM: RPMI^-gln medium; for inhibition at 1000 µM: 1 mM, RPMI^Pgln medium
Experimental: After 9 h of radiolabelling, parasites were isolated by saponin lysis, resuspended in 50 mM Tris pH 8.0 containing 100 mM NaCl, 2% glycerol and 0.1% Triton X-100, and lysed by sonication. The lysates were resolved on 10% SDS-PAGE gel and phosphorimager scanning was carried out to examine the radiolabelling of proteins using Amersham Typhoon 5 Biomolecular Imager. In parallel, 10 μl of the lysates were spotted on Whatman filter paper grade I, dried and washed subsequently with hot and cold 10% (w/v) trichloroacetic acid to remove free amino acids and charged-tRNAs, followed by diethyl ether to remove lipids. The filter papers were then placed in Ultima Gold XR scintillation cocktail and the radioactive counts were measured using MicroBeta^2 Microplate Counters. All these experiments were performed with identical parasitemia and hematocrit between the untreated and treated groups by equally splitting the infected cultures.

[4] = tested on: Pf parasites; conditions: RPMI^-gln medium; 50 and 250 μM MSO, 12 h
Experimental: Parasite pellets were then extracted with 10 volumes of 50% methanol in water (v/v), followed by lyophilisation and solubilizing the lyophilized extracts with 50 μl of water. […] For LC-MS/MS, the parasite extracts were derivatized with 6-aminoquinolyl-N-hydroxysuccinimidyl carbamate (AQC), cleaned up with SPE and dried under vacuum, followed by reconstitution with 50 μl of 0.5% acetonitrile containing 0.1% formic acid. 10 μl of the sample was used for LC-MS/MS analysis carried out in Acquity C18 column (1.8 μm, 2.1 mm×100 mm) using Dionnex Ultimate3000 UHPLC system coupled with Q Exactive mass spectrometer (Thermo Fisher Scientific). Mobile phase consisted of Solvent A: 10 mM ammonium acetate containing 0.1% formic acid and solvent B: acetonitrile containing 0.1% formic acid. Mass spectrometry was performed under spray voltage of 4000/2500V with vaporizer temperature of 250° C., sheath gas and auxillary gas flow rate of 30 and 10 Arb, respectively. The acquisition was performed in Parallel Reaction Monitoring mode at 35000 resolution with a normalized collision energy of 25 eV. The calibration curves were prepared for the individual amino acids and the samples were spiked with internal standards containing deuterated amino acids.

[5] = tested on: Pf asexual stages (Pf3D7 cultures); experiment: MSO and PPT inhibition of in vitro growth of Pf cultures; assay type: cell-based, Plasmodium falciparum; conditions: for IC50: Plasmodium falciparum, read-out: IC50 for inhibiting Pf growth
Experimental: The parasites were subcultured with fresh RBCs when the culture parasitemia reached around 2-5%. […] The isolated parasites were washed thoroughly with ice cold PBS for four times to remove the carry-over of proteins from RBC lysates. ART-resistant PfCam3.I^R539T strain was also maintained in a similar fashion. Giemsa-stained smears were routinely prepared to examine the parasite growth and parasitemia. Parasite growth assessment for experiments was carried out by Giemsa-stained smears, flow cytometry and ^3H-hypoxanthine uptake. […] The radioactive counts were measured using MicroBeta^2 Microplate Counters (PerkinElmer).

[6] = tested on: Pf clinical isolates; experiment: Inhibition studies with Pf clinical samples (3H-hypoxanthine uptake); assay type: cell-based, Plasmodium falciparum; conditions: in vitro cultures without or with glutamine; n=7 clinical isolates
Experimental: The collection of clinical samples was carried out by withdrawing blood from febrile patients. Pf infections were confirmed by examining Giemsa-stained thick and thin blood smears under light microscope, and by performing rapid diagnostic test and PCR for 18S rRNA. The infected blood was collected in heparinized vacutainers and the subsequent procedures were carried out in BSL-2 facility under sterile conditions. […] The packed cells were then resuspended in the same medium and the hematocrit was adjusted to 5%. The cultures were treated with different concentrations of MSO/PPT and ^3H-hypoxanthine addition was carried out after 3 h of MSO/PPT addition to assess the parasite growth. The cultures were incubated following the standard conditions of Pf maintenance and the experiments were performed for each clinical isolate in RPMI^-gln as well as in RPMI^Pgln. All these experiments were typically carried out in a final culture volume of 1.2 ml for the respective concentrations of MSO or PPT. Parasite growth assessment was also verified by examining the Giemsa-stained smears.

[7] = target: T1, rPfGS (Plasmodium falciparum glutamine synthetase) (Plasmodium falciparum, UniProt C0H551); experiment: Recombinant PfGS enzyme assay (HPLC glutamine formation / Pi release) and inhibition; assay type: biochemical
T1 sequence (C0H551 1-543): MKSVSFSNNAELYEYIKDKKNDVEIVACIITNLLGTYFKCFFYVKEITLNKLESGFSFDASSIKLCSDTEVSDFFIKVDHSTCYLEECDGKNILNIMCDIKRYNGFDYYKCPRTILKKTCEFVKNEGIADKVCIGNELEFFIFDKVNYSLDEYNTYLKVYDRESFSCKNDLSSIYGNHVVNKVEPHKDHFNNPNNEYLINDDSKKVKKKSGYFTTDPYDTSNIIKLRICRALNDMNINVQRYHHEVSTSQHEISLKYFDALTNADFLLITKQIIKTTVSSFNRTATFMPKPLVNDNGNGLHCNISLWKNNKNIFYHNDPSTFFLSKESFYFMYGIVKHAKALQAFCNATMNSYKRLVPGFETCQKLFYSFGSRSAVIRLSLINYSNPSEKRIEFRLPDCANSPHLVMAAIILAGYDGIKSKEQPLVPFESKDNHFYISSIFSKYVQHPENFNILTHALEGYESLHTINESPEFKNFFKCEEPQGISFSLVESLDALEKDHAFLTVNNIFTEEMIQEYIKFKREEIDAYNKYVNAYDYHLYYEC
Experimental: (§1) Enzyme assays were carried out by performing HPLC analysis for glutamine formation as well as by quantifying the release of inorganic phosphate (Pi). The enzyme assays were carried out at 37° C. for 1 h in a total volume of 25 µl and the assay mixtures contained 50 mM Tris buffer pH 8.0 with 4 mM glutamate, 50 mM NaCl, 50 mM NH4Cl, 10 mM ATP and 50 mM MgCl2 and 0.5-1.0 μg of recombinant protein. The amino acids were extracted by vortexing the assay mixtures with 50 μl of water and 375 μl of acetonitrile, followed by incubation in ice for 30 min and centrifugation at 20,000 g for 20 min at 4° C. The supernatant was collected, lyophilized and dissolved in 50 μl of water. […] Mobile phase consisted of Solvent A: 10 mM Na2HPO4, and 10 mM Na2B4O7, pH 8.2 and solvent B: methanol: acetonitrile: water (45:45:10 v/v). […] For every molecule of glutamine formed, one molecule of ATP is hydrolysed to ADP and Pi. […] For Pi assays, the assay mixtures incubated at 37° C. for 1 h were diluted with water to 200 μl, followed by the addition of 30 μl of phosphate reagent of Phosphate Assay Kit (Abcam, ab65622). After vortexing, the absorbance was measured at 650 nm as per the manufacturer's protocol. Individual glutamate-and protein-omitted reactions were used as controls for all the assays.

[8] = substrate: N; experiment: as above; assay type: biochemical, Plasmodium falciparum; conditions: other: Lineweaver-Burk plots; mean±SD, at least three different protein preparations
Experimental: as §1

[9] = substrate: N[C@@H](CCC(=O)O)C(=O)O; experiment: as above; assay type: biochemical, Plasmodium falciparum; conditions: other: Lineweaver-Burk plots; mean±SD, at least three different protein preparations
Experimental: as §1

[10] = substrate: Nc1ncnc2c1ncn2[C@@H]1O[C@H](COP(=O)(O)OP(=O)(O)OP(=O)(O)O)[C@@H](O)[C@H]1O; experiment: as above; assay type: biochemical, Plasmodium falciparum; conditions: other: Lineweaver-Burk plots; mean±SD, at least three different protein preparations
Experimental: as §1

## C[C@@H]1CC[C@H]2[C@@H](C)C(=O)O[C@@H]3O[C@@]4(C)CC[C@@H]1[C@]32OO4 [ART, artemisinin]
[1]; 700 nM exposure for 6 h, PfCam3.I^R539T cultures, after 72 h
  viable parasites after exposure in RSA: resulted in viable parasites

## CS(=N)(=O)CC[C@H](N)C(=O)O (stereo partly drawn) [MSO, L-methionine sulfoximine]
[2]
  phosphorylation of eIF2α in Pf: prominent phosphorylation
[1]; MSO alone for 6 h, PfCam3.I^R539T rings
  inhibition with respect to the untreated control: 10-20%
[3]
  inhibition at 50 µM: 40 to 50%
  inhibition at 250 µM: ~80%
  inhibition at 1000 µM: ~50%
[4]
  free glutamine levels in treated Pf parasites with respect to untreated parasites: did not show a significant decrease
  reduction of free asparagine levels with respect to untreated control: 1.5-2.0 fold
[5]
  IC50: ~30 µM
[6]
  growth of Pf clinical samples: could inhibit the growth of Pf clinical samples to the extent that was observed for Pf3D7 strain

## CP(=O)(O)CCC(N)C(=O)O (centres unmarked) [PPT, Phosphinothricin]
[3]
  inhibition at 50 µM: 40 to 50%
  inhibition at 250 µM: ~80%
  inhibition at 1000 µM: ~50%
[7]
  Ki: 2310 ± 1100 nM
[5]; RPMI medium lacking glutamine (RPMI^-gln)
  IC50: ~30 µM
[5]; RPMI medium containing physiological levels (0.5 mM) of glutamine (RPMI^Pgln)
  IC50 in RPMI^Pgln relative to IC50 in RPMI^-gln: ~10 times higher
[6]
  growth of Pf clinical samples: could inhibit the growth of Pf clinical samples to the extent that was observed for Pf3D7 strain

B1: rPfGS (Plasmodium falciparum glutamine synthetase) (Plasmodium falciparum 3D7) (protein)
chain: MKSVSFSNNAELYEYIKDKKNDVEIVACIITNLLGTYFKCFFYVKEITLNKLESGFSFDASSIKLCSDTEVSDFFIKVDHSTCYLEECDGKNILNIMCDIKRYNGFDYYKCPRTILKKTCEFVKNEGIADKVCIGNELEFFIFDKVNYSLDEYNTYLKVYDRESFSCKNDLSSIYGNHVVNKVEPHKDHFNNPNNEYLINDDSKKVKKKSGYFTTDPYDTSNIIKLRICRALNDMNINVQRYHHEVSTSQHEISLKYFDALTNADFLLITKQIIKTTVSSFNRTATFMPKPLVNDNGNGLHCNISLWKNNKNIFYHNDPSTFFLSKESFYFMYGIVKHAKALQAFCNATMNSYKRLVPGFETCQKLFYSFGSRSAVIRLSLINYSNPSEKRIEFRLPDCANSPHLVMAAIILAGYDGIKSKEQPLVPFESKDNHFYISSIFSKYVQHPENFNILTHALEGYESLHTINESPEFKNFFKCEEPQGISFSLVESLDALEKDHAFLTVNNIFTEEMIQEYIKFKREEIDAYNKYVNAYDYHLYYEC
[8]
  Km: 0.53 ± 0.18 mM
[9]
  Km: 0.73 ± 0.21 mM
[10]
  Km: 0.75 ± 0.14 mM
